Laboratory results from US7659244B2, “Rapamycin peptides conjugates: synthesis and uses thereof” (Quest Pharmatech, Inc., priority 2004, dated 2010).
Where a name gives a salt, the structure may show the parent alone. Read-outs that look alike come from different tables or passages of the source.

Legend:
[1] = tested on: A431
Protocol: (§1) Quantification of cell proliferation and cell viability was determined by measuring the amount of radioactive [^3H-methyl]-thymidine incorporated into DNA.
(§2) Cell culture: For each cell line, culture was carried according to the ATCC Product Information Sheet provided. Cell lines were always freshly thawed prior to each experiment. For all experiments exponentially growing cells were harvested and centrifuged at 1100 rpm, the spent medium was aspirated and cell pellets were resuspended in fresh complete medium. Viable cells were enumerated by trypan blue exclusion using a hemacytometer.
(§3) Cells were then seeded in 96 well tissue culture plates in a total volume of 100 μL/well. A preliminary experiment should be performed to determine the most appropriate cell density for each individual cell line. Cells were allowed to attach and acclimate overnight.
(§4) Addition of test compounds: Each test compound was dissolved in DMSO at a final concentration of 2 mM. Each stock compound was then diluted in complete medium (1:100) to obtain a 20 μM working solution. The working solution was used for further serial dilutions to obtain concentrations of 200 nM, 20 nM, 2 nM, 0.2 nM and 0.02 nM. 100 μL of each dilution was added to the 100 μL cell cultures (3 replicates),. to give final test concentrations of 100 nM, 10 nM, 1 nM, 0.1 nM and 0.01 nM. Using this system of dilutions, the maximum concentration of DMSO to which the cells were exposed was 0.01% v/v. Therefore, 0.01% DMSO was added to control cells to which no test compounds was added. On each plate two positive controls were included: Adriamycin Hydrochloride and Rapamycin. For each positive control 3 concentrations were chosen in a range that achieved an LC50, this range is cell line specific and must be predetermined in a pilot experiment. Plates were incubated for 96 hours prior to harvesting. [^3H-methyl]-thymidine incorporation: After 80 hours incubation, 10 μL (0.5 μCi) of [^3H-methyl]-thymidine diluted in 1× HBSS was added and plates were incubated overnight.
(§5) Growth medium was removed from each well and 100 uL of Trypsin-EDTA was added. The plate was incubated at 37° C. until cells were trypsinized (check under microscope). The detached cells were harvested using a semiautomatic cell harvester. Filters were dried prior to addition to scintillation vials. two mL of scintillation fluid was automatically dispensed into each vial and counting was effected on program 1 (^3H, 1 min, DPM).
(§6) The average and standard error from the DPM counts of replicate samples were calculated.

[2] = tested on: Lncap
Protocol: as §1, §2, §3, §4, §5, §6

[3] = tested on: LS174T
Protocol: as §1, §2, §3, §4, §5, §6

[4] = tested on: MCF-7
Protocol: as §1, §2, §3, §4, §5, §6

[5] = tested on: OVCAR-3
Protocol: as §1, §2, §3, §4, §5, §6

[6] = tested on: SKMEL-2
Protocol: as §1, §2, §3, §4, §5, §6

[7] = tested on: SK-N-SH
Protocol: as §1, §2, §3, §4, §5, §6

[8] = tested on: SKOV-3
Protocol: as §1, §2, §3, §4, §5, §6

[9] = tested on: D341
Protocol: as §1, §2, §3, §4, §5, §6

[10] = tested on: A431; experiment: cells; conditions: Homo sapiens, A-431, 96 h, read-out: Inhibition of H^3 Thymidine uptake (IC50 in nM)
Protocol: as §1, §2, §3, §4, §5, §6

[11] = tested on: Lncap; experiment: cells; conditions: Homo sapiens, 96 h, read-out: Inhibition of H^3 Thymidine uptake (IC50 in nM)
Protocol: as §1, §2, §3, §4, §5, §6

[12] = tested on: LS174T; experiment: cells; conditions: Homo sapiens, 96 h, read-out: Inhibition of H^3 Thymidine uptake (IC50 in nM)
Protocol: as §1, §2, §3, §4, §5, §6

[13] = tested on: MCF-7; experiment: cells; conditions: Homo sapiens, MCF7, 96 h, read-out: Inhibition of H^3 Thymidine uptake (IC50 in nM)
Protocol: as §1, §2, §3, §4, §5, §6

[14] = tested on: OVCAR-3; experiment: cells; conditions: Homo sapiens, OVCAR-3, 96 h, read-out: Inhibition of H^3 Thymidine uptake (IC50 in nM)
Protocol: as §1, §2, §3, §4, §5, §6

[15] = tested on: SKMEL-2; experiment: cells; conditions: Homo sapiens, SK-MEL-2, 96 h, read-out: Inhibition of H^3 Thymidine uptake (IC50 in nM)
Protocol: as §1, §2, §3, §4, §5, §6

[16] = tested on: SK-N-SH; experiment: cells; conditions: Homo sapiens, 96 h, read-out: Inhibition of H^3 Thymidine uptake (IC50 in nM)
Protocol: as §1, §2, §3, §4, §5, §6

[17] = tested on: SKOV-3; experiment: cells; conditions: Homo sapiens, SK-OV-3, 96 h, read-out: Inhibition of H^3 Thymidine uptake (IC50 in nM)
Protocol: as §1, §2, §3, §4, §5, §6

[18] = tested on: D341; experiment: cells; conditions: Homo sapiens, D341, 96 h, read-out: Inhibition of H^3 Thymidine uptake (IC50 in nM)
Protocol: as §1, §2, §3, §4, §5, §6

[19] = tested on: various cell lines; conditions: in vitro; cited from earlier work
[20] = read-out: Inhibition of H^3 Thymidine uptake (IC50 in nM), A431 cells, 96 hours incubation
[21] = read-out: Inhibition of H^3 Thymidine uptake (IC50 in nM), Lncap cells, 96 hours incubation
[22] = read-out: Inhibition of H^3 Thymidine uptake (IC50 in nM), LS174T cells, 96 hours incubation
[23] = read-out: Inhibition of H^3 Thymidine uptake (IC50 in nM), MCF-7 cells, 96 hours incubation
[24] = read-out: Inhibition of H^3 Thymidine uptake (IC50 in nM), OVCAR-3 cells, 96 hours incubation
[25] = read-out: Inhibition of H^3 Thymidine uptake (IC50 in nM), SKMEL-2 cells, 96 hours incubation
[26] = read-out: Inhibition of H^3 Thymidine uptake (IC50 in nM), SK-N-SH cells, 96 hours incubation
[27] = read-out: Inhibition of H^3 Thymidine uptake (IC50 in nM), SKOV-3 cells, 96 hours incubation
[28] = read-out: Inhibition of H^3 Thymidine uptake (IC50 in nM), D341 cells, 96 hours incubation

SMILES | IC50 ([1]; 96 h) [nM] | IC50 ([2]; 96 h) [nM] | IC50 ([3]; 96 h) [nM] | IC50 ([4]; 96 h) [nM] | IC50 ([5]; 96 h) [nM] | IC50 ([6]; 96 h) [nM] | IC50 ([7]; 96 h) [nM] | IC50 ([8]; 96 h) [nM] | IC50 ([9]; 96 h) [nM] | IC50 [1, 20] [nM] | IC50 [2, 21] [nM] | IC50 [3, 22] [nM] | IC50 [4, 23] [nM] | IC50 [5, 24] [nM] | IC50 [6, 25] [nM] | IC50 [7, 26] [nM] | IC50 [8, 27] [nM] | IC50 [9, 28] [nM] | further results
CO[C@H]1C[C@@H]2CC[C@@H](C)[C@@](O)(O2)C(=O)C(=O)N2CCCC[C@H]2C(=O)O[C@H]([C@H](C)C[C@@H]2CC[C@@H](OC(=O)N[C@H](CO)[C@@H](C)O)[C@H](OC)C2)CC(=O)[C@H](C)/C=C(\C)[C@@H](O)[C@@H](OC)C(=O)[C@H](C)C[C@H](C)/C=C/C=C/C=C/1C [Compound 7r, Rapamycin-42-O-ester-(2R,3R)-2-amino-1,3-butanediol] |  |  |  |  |  |  |  |  |  | 191 | 21.8 | 1410 | 1.86 | 47.2 | 8.32 | 4.84 | 6.44 | 5.5 | 
COc1cccc2c1C(=O)c1c(O)c3c(c(O)c1C2=O)C[C@@](O)(C(=O)CO)C[C@@H]3O[C@H]1C[C@H](N)[C@H](O)[C@H](C)O1 [Adriamycin, Adriamycin Hydrochloride] |  |  |  |  |  |  |  |  |  |  |  |  |  |  |  |  |  |  | IC50 [10]: 50.4 nM; IC50 [11]: 2.54 nM; IC50 [12]: 4.04 nM; IC50 [13]: 3.11 nM; IC50 [14]: 4.77 nM; IC50 [15]: 1.93 nM; IC50 [16]: 0.896 nM; IC50 [17]: 130 nM; IC50 [18]: 7.02 nM
CO[C@H]1C[C@@H]2CC[C@@H](C)[C@@](O)(O2)C(=O)C(=O)N2CCCC[C@H]2C(=O)O[C@H]([C@H](C)C[C@@H]2CC[C@@H](O)[C@H](OC)C2)CC(=O)[C@H](C)/C=C(\C)[C@@H](O)[C@@H](OC)C(=O)[C@H](C)C[C@H](C)/C=C/C=C/C=C/1C [Compound 5, Rapamycin] |  |  |  |  |  |  |  |  |  |  |  |  |  |  |  |  |  |  | IC50 [10]: 341 nM; IC50 [11]: 30.3 nM; IC50 [12]: 980 nM; IC50 [13]: 0.408 nM; IC50 [14]: 44.5 nM; IC50 [15]: 1.12 nM; IC50 [16]: 1.33 nM; IC50 [17]: 0.392 nM; IC50 [18]: 1.56 nM
CO[C@H]1C[C@@H]2CC[C@@H](C)[C@@](O)(O2)C(=O)C(=O)N2CCCC[C@H]2C(=O)O[C@H]([C@H](C)C[C@@H]2CC[C@@H](OC(=O)NC(CO)CO)[C@H](OC)C2)CC(=O)[C@H](C)/C=C(\C)[C@@H](O)[C@@H](OC)C(=O)[C@H](C)C[C@H](C)/C=C/C=C/C=C/1C [Compound 7o, Rapamycin-42-O-ester-2-amino-1,3-propanediol] |  |  |  |  |  |  |  |  |  | 150 | 39.6 | 1030 | 2.58 | 80.7 | 48.3 | 5.84 | 27.4 | 36.2 | 
CO[C@H]1C[C@@H]2CC[C@@H](C)[C@@](O)(O2)C(=O)C(=O)N2CCCC[C@H]2C(=O)O[C@H]([C@H](C)C[C@@H]2CC[C@@H](OC(=O)NCC(O)CO)[C@H](OC)C2)CC(=O)[C@H](C)/C=C(\C)[C@@H](O)[C@@H](OC)C(=O)[C@H](C)C[C@H](C)/C=C/C=C/C=C/1C (stereo partly shown) [Compound 7n, Rapamycin-42-O-ester-3-amino-1,2-propanediol] |  |  |  |  |  |  |  |  |  | 314 | 42.7 | 55100 | 2.53 | 71.9 | 11.7 | 7.27 | 7.96 | 14.7 | 
CCC(C)C(CO)NC(=O)O[C@@H]1CC[C@@H](C[C@@H](C)[C@@H]2CC(=O)[C@H](C)/C=C(\C)[C@@H](O)[C@@H](OC)C(=O)[C@H](C)C[C@H](C)/C=C/C=C/C=C(\C)[C@@H](OC)C[C@@H]3CC[C@@H](C)[C@@](O)(O3)C(=O)C(=O)N3CCCC[C@H]3C(=O)O2)C[C@H]1OC (stereo partly shown) [Compound 7m, Rapamycin-42-O-ester-2-amino-3-methyl-1-pentanol] |  |  |  |  |  |  |  |  |  | 626 | 136 | 664 | 31.3 | 488 | 147 | 56.7 | 69.1 | 86.8 | 
CO[C@H]1C[C@@H]2CC[C@@H](C)[C@@](O)(O2)C(=O)C(=O)N2CCCC[C@H]2C(=O)O[C@H]([C@H](C)C[C@@H]2CC[C@@H](OC(=O)C(C)(CO)CO)[C@H](OC)C2)CC(=O)[C@H](C)/C=C(\C)[C@@H](O)[C@@H](OC)C(=O)[C@H](C)C[C@H](C)/C=C/C=C/C=C/1C [CCI-779] |  |  |  |  |  |  |  |  |  |  |  |  |  |  |  |  |  |  | IC50 [19]: < 10 nM
COC1CC2CCC(C)C(O)(O2)C(=O)C(=O)N2CCCCC2C(=O)OC(C(C)CC2CCC(OC(=O)NC(CO)CC(C)C)C(OC)C2)CC(=O)C(C)C=C(C)C(O)C(OC)C(=O)C(C)CC(C)C=CC=CC=C1C [Compound 7t, Rapamycin-42-O-ester-(S)-(+)-2-amino-4-methyl pentanol] |  |  |  |  |  |  |  |  |  | 278 | 202 | 24000 | 53.3 | 367 | 73.2 | 99.3 | 64.1 | 61.2 | 
CO[C@H]1C[C@@H]2CC[C@@H](C)[C@@](O)(O2)C(=O)C(=O)N2CCCC[C@H]2C(=O)O[C@H]([C@H](C)C[C@@H]2CC[C@@H](OC(=O)N[C@@H](CO)[C@@H](O)c3ccccc3)[C@H](OC)C2)CC(=O)[C@H](C)/C=C(\C)[C@@H](O)[C@@H](OC)C(=O)[C@H](C)C[C@H](C)/C=C/C=C/C=C/1C [Compound 7l, Rapamycin-42-O-ester-(1S,2S)-(+)-2-amino-1-phenyl-1,3-propandiol] |  |  |  |  |  |  |  |  |  | 217 | 64.6 | 23500 | 6.35 | 113 | 29.1 | 15.6 | 17.1 | 27.6 | 

The next lines start with results.

IC50 ([1]; 96 h) [nM] | IC50 ([2]; 96 h) [nM] | IC50 ([3]; 96 h) [nM] | IC50 ([4]; 96 h) [nM] | IC50 ([5]; 96 h) [nM] | IC50 ([6]; 96 h) [nM] | IC50 ([7]; 96 h) [nM] | IC50 ([8]; 96 h) [nM] | IC50 ([9]; 96 h) [nM] | SMILES | IC50 [1, 20] [nM] | IC50 [2, 21] [nM] | IC50 [3, 22] [nM] | IC50 [4, 23] [nM] | IC50 [5, 24] [nM] | IC50 [6, 25] [nM] | IC50 [7, 26] [nM] | IC50 [8, 27] [nM] | IC50 [9, 28] [nM] | further results
286 | 212 | 1700 | 32.3 | 260 | 87.4 | 111 | 72.1 | 114 | CC[C@H](C)[C@H](NC(=O)[C@H](CC(C)C)NC(=O)O[C@@H]1CC[C@@H](C[C@@H](C)[C@@H]2CC(=O)[C@H](C)/C=C(\C)[C@@H](O)[C@@H](OC)C(=O)[C@H](C)C[C@H](C)/C=C/C=C/C=C(\C)[C@@H](OC)C[C@@H]3CC[C@@H](C)[C@@](O)(O3)C(=O)C(=O)N3CCCC[C@H]3C(=O)O2)C[C@H]1OC)C(=O)N[C@@H](CO)Cc1ccccc1 [Compound 7c, Rapamycin-42-O-ester-(NH-L-Leu-L-Ile-D-Phe-CH2OH)] |  |  |  |  |  |  |  |  |  | 
1840 | 309 | 1480 | 53.3 | 424 | 326 | 144 | 136 | 182 | CC[C@H](C)[C@H](NC(=O)O[C@@H]1CC[C@@H](C[C@@H](C)[C@@H]2CC(=O)[C@H](C)/C=C(\C)[C@@H](O)[C@@H](OC)C(=O)[C@H](C)C[C@H](C)/C=C/C=C/C=C(\C)[C@@H](OC)C[C@@H]3CC[C@@H](C)[C@@](O)(O3)C(=O)C(=O)N3CCCC[C@H]3C(=O)O2)C[C@H]1OC)C(=O)N[C@H](CO)Cc1ccccc1 [Compound 7b, Rapamycin-42-O-ester-(NH-L-Ile-S-Phe-CH2OH)] |  |  |  |  |  |  |  |  |  | 
490 | 191 | 146 | 66.9 | 503 | 155 | 90 | 76.6 | 82.8 | CC[C@H](C)[C@H](NC(=O)[C@H](CC(C)C)NC(=O)[C@H](C)NC(=O)O[C@@H]1CC[C@@H](C[C@@H](C)[C@@H]2CC(=O)[C@H](C)/C=C(\C)[C@@H](O)[C@@H](OC)C(=O)[C@H](C)C[C@H](C)/C=C/C=C/C=C(\C)[C@@H](OC)C[C@@H]3CC[C@@H](C)[C@@](O)(O3)C(=O)C(=O)N3CCCC[C@H]3C(=O)O2)C[C@H]1OC)C(=O)N[C@@H](CO)Cc1ccccc1 [Compound 7e, Rapamycin-42-O-ester-(NH-L-Ala-L-Leu-L-Ile-D-Phe-CH2OH)] |  |  |  |  |  |  |  |  |  | 
2370 | 374 | 777 | 85.5 | 375 | 416 | 223 | 155 | 405 | CC[C@H](C)[C@H](NC(=O)[C@H](CC(C)C)NC(=O)[C@H](C)NC(=O)[C@H](Cc1cn(C(c2ccccc2)(c2ccccc2)c2ccccc2)cn1)NC(=O)O[C@@H]1CC[C@@H](C[C@@H](C)[C@@H]2CC(=O)[C@H](C)/C=C(\C)[C@@H](O)[C@@H](OC)C(=O)[C@H](C)C[C@H](C)/C=C/C=C/C=C(\C)[C@@H](OC)C[C@@H]3CC[C@@H](C)[C@@](O)(O3)C(=O)C(=O)N3CCCC[C@H]3C(=O)O2)C[C@H]1OC)C(=O)N[C@@H](CO)Cc1ccccc1 [Compound 7h] |  |  |  |  |  |  |  |  |  | 
